Laboratory results as given in patent publication US20260275249A1, “Bleach Catalyst With Improved Performance, Granule Comprising The Bleach Catalyst, And Composition Comprising Said Catalyst Or Said Granule” (Reckitt Benckiser Vanish B.V., priority 2023, published 2026).
Entries after “also recorded” stand apart in the source; their conditions may differ.

What was measured:
[1] = Stability of bleach catalysts: UV-vis absorbance of solutions at pH 11; type: physicochemical
Experimental: The stability of bleach catalysts having the structures shown in Table 2 was determined by preparing solutions of these compounds and measuring their UV-vis absorbance.
A solution of each compound was prepared by dissolving each compound in a mixture of 50 wt. % water and 50 wt. % acetone. The concentration of each solution was 0.28 mM.
The pH of each solution was set to 11 by adding a diluted solution of sodium hydroxide.
The UV-vis absorption of each solution was measured just after preparing the samples (t=0), then at 2 h and 48 h using a UV-Vis Evolution 220 FC-1135 spectrophotometer.

[2] = Amount of solvent system needed to dissolve 0.2 g of bleach catalyst (effect of surfactant on solubility); type: physicochemical
Experimental: The amount of solvent needed to dilute 0.2 g of bleach catalyst 1 was determined. Subsequently solvent systems containing a solvent and 0.06 wt. % of surfactant, based on the total weight of the solvent system, were prepared, and the amount of solvent system needed to dilute 0.2 g of bleach catalyst 1 was determined. It will be recognised that for the preparation of a supported catalyst on a carrier it is necessary to dilute the bleach catalyst in a solvent system.
The results of the amount of solvent system without surfactant and solvent system with surfactant needed to dissolve 0.2 g of bleach catalyst 1 are shown in Table 5.

[3] = t = 0, 0.28 mM in 50 wt. % water / 50 wt. % acetone
[4] = t = 48 h, 0.28 mM in 50 wt. % water / 50 wt. % acetone

Row | Absorption at 445 nm [1, 3] | Appearance [1, 3] | Absorption at 445 nm [1, 4] | Appearance [1, 4] | Amount of solvent system needed to dissolve 0.2 g of bleach catalyst ([2]; Acetone) [g] | Amount of solvent system needed to dissolve 0.2 g of bleach catalyst ([2]; Acetone with 0.06 wt. % surfactant (ROKAnol L7A)) [g] | Amount of solvent system needed to dissolve 0.2 g of bleach catalyst ([2]; Ethyl acetate) [g] | Amount of solvent system needed to dissolve 0.2 g of bleach catalyst ([2]; Ethyl acetate with 0.06 wt. % surfactant (ROKAnol L7A)) [g] | Amount of solvent system needed to dissolve 0.2 g of bleach catalyst ([2]; Tetrahydrofuran) [g] | Amount of solvent system needed to dissolve 0.2 g of bleach catalyst ([2]; Tetrahydrofuran with 0.06 wt. % surfactant (ROKAnol L7A)) [g] | Compound
1 | <0.05 | Transparent | <0.05 | Transparent | 5 | 2.5 | 13 | 11 | 3.5 | 2.75 | O=S1(=O)N=C(c2ccccn2)c2ccccc21 [Bleach catalyst 1, 3-(33yridine-2-yl)-1,2-benzisothiazole-1,1-dioxide]
2 | <0.05 | Transparent | <0.05 | Transparent | – | – | – | – | – | – | O=S1(=O)N=C(c2ccccc2)c2ccccc21 [Bleach catalyst B, 3-phenyl-1,2-benzisothiazole-1,1-dioxide]
3 | <0.05 | Transparent | <0.05 | Transparent | – | – | – | – | – | – | CC(C)(C)C1=NS(=O)(=O)c2ccccc21 [Bleach catalyst C, 3-tert-butyl-1,2-benzisothiazole-1,1-dioxide]

Row | Compound | Absorption at 445 nm [1, 3] | Appearance [1, 3] | Absorption at 445 nm [1, 4] | Appearance [1, 4] | Amount of solvent system needed to dissolve 0.2 g of bleach catalyst ([2]; Acetone) [g] | Amount of solvent system needed to dissolve 0.2 g of bleach catalyst ([2]; Acetone with 0.06 wt. % surfactant (ROKAnol L7A)) [g] | Amount of solvent system needed to dissolve 0.2 g of bleach catalyst ([2]; Ethyl acetate) [g] | Amount of solvent system needed to dissolve 0.2 g of bleach catalyst ([2]; Ethyl acetate with 0.06 wt. % surfactant (ROKAnol L7A)) [g] | Amount of solvent system needed to dissolve 0.2 g of bleach catalyst ([2]; Tetrahydrofuran) [g] | Amount of solvent system needed to dissolve 0.2 g of bleach catalyst ([2]; Tetrahydrofuran with 0.06 wt. % surfactant (ROKAnol L7A)) [g]
4 | O=S1(=O)N=C(c2cccnc2)c2ccccc21 [Bleach catalyst 2, 3-(pyridine-3-yl)-1,2-benzisothiazole-1,1-dioxide] | <0.05 | Transparent | <0.05 | Transparent | – | – | – | – | – | –
5 | CC1=NS(=O)(=O)c2ccccc21 [Bleach catalyst A, 3-methyl-1,2-benzisothiazole-1,1-dioxide] | <0.05 | Transparent | 0.37 | coloured/yellow; also recorded: Yellowing | – | – | – | – | – | –
